Results published in US20080242684A1, “METHODS OF ADMINISTRATION OF ADENOSINE A1 RECEPTOR ANTAGONISTS” (priority 2007, published 2008).

Key:
[1] = test system: Subjects presenting with New York Heart Association Class II-IV CHF and estimated creatinine clearance between 20 mL/min and 80 mL/min
Protocol: The subjects are taking an oral loop diuretic. The subjects can also present with a one of the following: history of seizure, stroke within two years, brain tumor, brain surgery within two years, encephalitis within two years, history of penetrating head trauma, closed head injury with loss of consciousness over 30 minutes within two years, history of alcohol withdrawal seizure, advanced Alzheimer's disease, or advanced multiple sclerosis (“at risk” subjects). The subjects' medical history, physical examination, classification of CHF, vital signs, body weight, CHF signs and symptom scores, Holter monitor recording, chest X-ray, CBC chemistries, creatinine clearance, fluid intake, and urine output are determined on pre-treatment days −2 to −1, days 1 to 3 of the Treatment Period, day 4/early Termination and a follow up contact at day 30. […] On day 1, the composition comprising KW-3902 (or placebo) is administered as a monotherapy. 6 hours after administration of KW-3902, IV loop diuretic is given to all treatment groups as needed. […] Final laboratory data are collected on day 4 or early termination. Follow-up phone contact is conducted on day 30.

[2] = test system: Subjects presenting with congestive heart failure who are refractory to high dose diuretic therapy; assay: Example 3: IV KW-3902 in subjects refractory to standard IV diuretic therapy; format: in vivo, human; conditions: 20-40 mg KW-3902 IV over 3-5 hours
Protocol: Changes in urine output are measured hourly. The subjects' creatinine clearance rate is measured every 3 hours. […] A dose of between about 20 mg and about 40 mg, preferably about 30 mg of KW-3902 in injectable form is infused through the IV line over the course of about 3 to about 5 hours, and preferably over the course of 4 hours. The subject receives continued treatment with furosemide. The subject's fluid intake and output, urine volume, serum and urine creatinine levels, electrolytes and cardiac function are monitored.

[3] = test system: subject with fluid overload and impaired renal function; assay: Example 5: IV KW-3902 concurrent with diuretic therapy in fluid overload and impaired renal function; format: in vivo, human; conditions: 20-40 mg KW-3902 IV over 3-5 hours, concurrent with other diuretic therapy
Protocol: A subject with fluid overload, as manifested by peripheral edema, dyspnea, and/or other signs or symptoms presents themself to the physician's office or clinic. The subject has been on a therapy regimen that includes oral diuretics and, in addition, to needing a higher dose of diuretics to manage his/her fluid balance, the subject is now showing impaired renal function. […] The subject is administered a dose of about 20 mg to about 40 mg KW-3902 intravenously over about 3 to about 5 hours, preferably over the course of about 4 hours, concurrent with other diuretic therapy. The subject's fluid intake and output, urine volume, serum and urine creatinine levels, electrolytes and cardiac function are monitored.

[4] = test system: hospitalized subject treated with maximum amounts of IV diuretic and still fluid overloaded; assay: Example 4: IV KW-3902 with continued furosemide in a hospitalized subject refractory to IV diuretic; format: in vivo, human; conditions: 20-40 mg KW-3902 IV over 3-5 hours
Protocol: A hospitalized subject who has been treated with maximum amounts of IV diuretic and is still symptomatic, fluid overloaded, or whose urine output is less than fluid intake is evaluated for further treatment. A dose of a KW-3902 between about 20 mg and about 40 mg, and preferably about 30 mg injectable form is infused through the IV line over the course of about 3 hours to about 5 hours, and preferably over the course of about 4 hours. […] The subject's fluid intake and output, urine volume, serum and urine creatinine levels, electrolytes and cardiac function are monitored.

[5] = test system: subject with fluid overload; assay: Example 7: IV KW-3902 concurrent with diuretic therapy in fluid overload; format: in vivo, human; conditions: 20-40 mg KW-3902 IV over 3-5 hours
Protocol: A subject with fluid overload, as manifested by peripheral edema, dyspnea, and/or other signs or symptoms presents to the physician's office or clinic. The subject has been on a therapy regimen that includes oral diuretics and needs a higher dose of diuretics to manage his/her fluid balance. To delay or prevent the onset of renal impairment and/or to delay the need to use higher dosages of standard diuretics, the subject is administered a dose of about 20 mg to about 40 mg, and preferably a dose of about 30 mg, KW-3902 IV, administered over the course of about 3 to about 5 hours, and preferably over the course of about 4 hours. The subject also receives concurrent with their diuretic therapy. The subject's fluid intake and output, urine volume, serum and urine creatinine levels, electrolytes and cardiac function are monitored.

## CCCn1c(=O)c2[nH]c(C34CC5CC(CC3C5)C4)nc2n(CCC)c1=O [KW-3902, 8-(3-noradamantyl)-1,3-dipropylxanthine]
[1]; 20-40 mg (preferably about 30 mg) KW-3902 IV over about 4 hours, days 1-3, effect greater than placebo
  kidney function as measured by serum creatinine levels compared to the baseline levels: improvement in kidney function
[1]; at risk subjects
  seizures throughout the treatment period: do not experience seizures
[1]; combination of KW-3902 and non adenosine-modifying diuretics such as furosemide
  diuresis, as measured by urine output: synergistic beneficial effect on diuresis
[2]; continued furosemide
  seizures during the course of treatment: do not experience seizures
[2]; compared to placebo
  creatinine clearance: improvement in creatinine clearance
  hourly urine volume over the ensuing 9 hours: increased hourly urine volume
[3]
  creatinine clearance: improved diuresis and creatinine clearance
  diuresis: improved diuresis
  seizures throughout the course of therapy: do no experience seizures
[4]
  diuresis: improved diuresis
  seizures: do not experience seizures
[5]
  diuresis: improved diuresis
  renal function: renal function is maintained
  seizure throughout the course of treatment: do not experience a seizure
